Measured values taken from PubChem BioAssay AID1645866 (Buhrlage Lab, Dana-Farber Cancer Institute and Novartis …, 2021).
Calls of active or inactive are those of the source.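 Rule for the calls: active = in confirmatory dose-response testing, peak deubiquitinase inhibition of 30% or more; inactive = the rest.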

Target: Ubiquitin carboxyl-terminal hydrolase 28 (Homo sapiens) (UniProt Q96RU2)
Experiment: Ubiquitin-specific peptidase 28 DUB inhibitors, biochemical concentration-dependence assay, validation of primary screening hits (AID 1645866)
Settings: purified USP28, ubiquitin-rhodamine fluorescence, 30 min

Chain of Ubiquitin carboxyl-terminal hydrolase 28 (Homo sapiens) (Q96RU2 whole entry, looked up): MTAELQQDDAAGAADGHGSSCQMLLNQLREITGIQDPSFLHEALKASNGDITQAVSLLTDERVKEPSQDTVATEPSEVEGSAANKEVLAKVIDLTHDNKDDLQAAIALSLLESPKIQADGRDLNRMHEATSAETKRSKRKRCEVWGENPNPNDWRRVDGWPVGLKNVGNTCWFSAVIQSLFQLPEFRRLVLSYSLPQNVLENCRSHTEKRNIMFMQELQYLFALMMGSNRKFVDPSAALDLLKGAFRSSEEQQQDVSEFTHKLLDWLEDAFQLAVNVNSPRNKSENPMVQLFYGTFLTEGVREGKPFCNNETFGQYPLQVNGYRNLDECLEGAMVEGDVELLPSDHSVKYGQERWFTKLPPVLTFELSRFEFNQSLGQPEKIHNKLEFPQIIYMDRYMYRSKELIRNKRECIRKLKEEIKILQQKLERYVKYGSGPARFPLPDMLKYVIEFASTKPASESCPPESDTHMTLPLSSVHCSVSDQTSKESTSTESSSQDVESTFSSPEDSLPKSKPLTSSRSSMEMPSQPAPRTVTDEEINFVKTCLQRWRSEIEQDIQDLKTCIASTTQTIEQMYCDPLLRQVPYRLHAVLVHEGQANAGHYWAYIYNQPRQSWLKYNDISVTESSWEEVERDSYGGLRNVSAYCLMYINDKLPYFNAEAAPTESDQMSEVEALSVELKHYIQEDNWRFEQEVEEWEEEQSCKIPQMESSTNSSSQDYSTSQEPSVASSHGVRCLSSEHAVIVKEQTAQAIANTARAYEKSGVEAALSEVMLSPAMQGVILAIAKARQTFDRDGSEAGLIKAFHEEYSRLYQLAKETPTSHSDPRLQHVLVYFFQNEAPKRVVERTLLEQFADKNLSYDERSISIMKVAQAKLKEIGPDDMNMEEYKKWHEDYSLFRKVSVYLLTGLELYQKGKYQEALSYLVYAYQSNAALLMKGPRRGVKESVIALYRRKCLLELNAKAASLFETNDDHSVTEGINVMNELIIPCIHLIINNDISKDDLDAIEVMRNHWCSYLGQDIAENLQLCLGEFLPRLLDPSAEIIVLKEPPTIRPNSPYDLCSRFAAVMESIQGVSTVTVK

SMILES | IC50
O=C1C[C@@H]2O[C@H](CNC(=O)[C@@H]3CN(CCN3C(=O)C3CCOCC3)C(=O)[C@@H]3C[C@@H](CN3Cc3ccc(F)c(F)c3)N1)[C@@H](O)[C@H]2O | > 50 µM (inactive)
NC(=O)c1nnn(-c2ccc(NC(=O)c3ccc(F)c(F)c3)cc2)n1 | 11.2 µM
Cc1cc(C)n(-c2ccc(C(=O)NCc3ccc(F)cc3)cn2)n1 | 19.7 µM
Cc1cc(C)c(NC(=O)CSc2nc3nccnc3c(=O)n2Cc2ccccc2Cl)c(C)c1 | 3.33 µM
CC1CCc2sc(NC(=O)c3ccccc3Oc3ccccc3)c(C(N)=O)c2C1 (stereo not given) | 15.2 µM
COc1c(O)cc(CC(=O)O)c(C(C)=O)c1O | 10.5 µM
O=C(Nc1cccc(C(F)(F)F)c1)c1cc2c(s1)-c1ccccc1OC2 | 6.78 µM
Cc1ccc(C)c(NC(=O)CCc2nc(CSc3nc4ccccc4o3)no2)c1 | 13.4 µM
CC1=CC(=O)C(C2=C(O)C(=O)C(C)=CC2=O)=C(O)C1=O | 20.3 µM
O=C(C1CCCN(S(=O)(=O)N2CCCCCC2)C1)N1CCN(c2ccccc2)CC1 (stereo not given) | > 50 µM (inactive)
O=C(c1ccnn1-c1ccc2ccc(-c3ccncc3)cn12)N1CCCC1 | > 50 µM (inactive)
O=C(CCc1ccc(S(=O)(=O)N2CCOCC2)cc1)Nc1ccc2c(c1)OCCO2 | 13.1 µM
O=c1c2ccccc2oc2nc(-c3cccs3)n(-c3ccccc3)c(=O)c12 | 2.12 µM
Cn1c(CCNC(=O)c2[nH]nc3c2CCc2ccccc2-3)nc2ccccc21 | 23.7 µM
O=C(c1cn(-c2cccc(F)c2)nn1)N1CCc2ccccc2C1 | 22.8 µM
O=C1CC(C(=O)Nc2ccc(F)cc2)n2nc(SCc3ccccc3)nc2N1 (stereo not given) | 29.3 µM
CNC(=O)c1cc2nc(N(C)C)n(-c3ccc(F)cc3)c2s1 | 11.6 µM
CSc1nc(Cc2ccc(Cl)cc2)nc2ccccc12 | 14 µM
O=c1ccc(-c2noc(Cc3c(F)cccc3Cl)n2)c[nH]1 | 0.516 µM

SMILES | IC50
Cc1cnnn1-c1ccc(C(=O)Nc2ccc(Cl)cc2)cc1 | 20.3 µM
Cc1ccc(NC(=O)Cn2c(Nc3cccc(C)c3)nc(C)cc2=O)cc1 | 25.4 µM
N#Cc1cc(C(=O)c2ccc(Cl)cc2)c[nH]1 | 41.9 µM
COc1ccc(C(C(=O)NC2CCCCC2)N(C(=O)CCCC(=O)Nc2ccccn2)c2ccccc2C)cc1 (stereo not given) | 17.1 µM
COc1ccc(NC(=O)c2nnn(-c3ccccc3C)c2C)cc1OC | 4.78 µM
O=c1c(OC2O[C@H](CO)[C@H](O)[C@H](O)[C@H]2O)c(-c2ccc(O)cc2)oc2cc(O)cc(O)c12 (stereo not given in full) | > 50 µM (inactive)
COc1ccc(COC(=O)C2=C(C)NC(=O)CC2c2cccc([N+](=O)[O-])c2)cc1 (stereo not given) | 3.06 µM
Cc1sc2ncn3c(=O)n(CC(=O)Nc4ccc(F)c(Cl)c4)nc3c2c1C | 3.14 µM
O=[N+]([O-])c1ccc(NCC2COc3ccccc3O2)c(Cl)c1 (stereo not given) | 3.75 µM
CCOc1ccccc1-c1nc(-c2nnn(Cc3ccccc3)c2C)no1 | > 50 µM (inactive)
N#Cc1cn(CC(=O)N2CCc3ccccc32)c2ccccc12 | 17.2 µM
CC1Oc2cc3c(-c4c(O)cc(O)c5c(O)c6c(cc45)OC(C)C(C)C6=O)c(O)cc(O)c3c(O)c2C(=O)C1C (stereo not given) | 2.18 µM
CCC/C=C\C#CC/C=C\CCCCCCCC(=O)O | 1.09 µM
Cc1nn(-c2ccc([N+](=O)[O-])cc2)c(C)c1-c1nc2ccccc2[nH]1 | 21 µM
Cc1ccc(-n2nc(C(=O)Nc3ccc(C)cn3)c3ncn(C)c(=O)c32)cc1 | 1.69 µM
CCc1cc2cc3c(cc2nc1SCC(=O)Nc1cccc(C(C)=O)c1)OCO3 | 2.58 µM
Cc1ccccc1NC(=O)c1ccn(COc2ccc(Cl)cc2)n1 | 13.3 µM
O=C(c1ccco1)N1CCN=C1SCc1ccccc1F | 9.78 µM
Cc1ccc(NC(=O)/C=C/c2cccc(C(F)(F)F)c2)c(O)c1 | 16.2 µM

SMILES | IC50
Cc1c(-c2nnc(-c3ccccn3)o2)nnn1-c1cccc(Cl)c1 | 25.6 µM
O=C(c1ccc2cc[nH]c2c1)N1CCC(Nc2cccnc2)C1 (stereo not given) | > 50 µM (inactive)
COC(=O)c1c(C)[nH]c(C(=O)C(C)OC(=O)CCC2CCCC2)c1C (stereo not given) | 1.47 µM
Cc1noc(-c2cccn(Cc3cccc(C(F)(F)F)c3)c2=O)n1 | 8.11 µM
COc1ccccc1NC(=O)Cn1cc(C(=O)c2ccc(C)cc2)c(=O)c2cc(Cl)ccc21 | 11.3 µM
COc1ccc(C(=O)C2CC(=O)Nc3c2c(C)nn3-c2ccc(Br)cc2)cc1 (stereo not given) | 20.1 µM
COc1ccc(OC)c(C2CC(=O)Nc3n[nH]c(-c4ccccc4)c32)c1 (stereo not given) | 28.5 µM
COc1cc(NC(=O)c2cc(CN3CCOCC3)on2)cc(OC)c1 | 20.3 µM
Cc1cccc(NC(=O)CSc2ncnc3c2sc2nc(CC(C)C)c4c(c23)CCC4)c1 | 6.42 µM
Cc1cc(C)nc(SCCn2c(N3CCC(Cc4ccccc4)CC3)nc3c2c(=O)n(C)c(=O)n3C)n1 | > 50 µM (inactive)
O=C(CCc1c[nH]c2ccccc12)Nc1ccc(N2CCOCC2)cc1 | 24.9 µM
CC(C)CC1NC(=O)C2CCCN2C1=O (stereo not given) | 37.1 µM
CC1CC[C@]2(NC1)O[C@H]1C[C@H]3[C@@H]4CC[C@H]5C[C@@H](O[C@@H]6O[C@H](CO)[C@H](O[C@@H]7O[C@H](CO)[C@@H](O)[C@H](O[C@@H]8OC[C@@H](O)[C@H](O)[C@H]8O)[C@H]7O[C@@H]7O[C@H](CO)[C@@H](O)[C@H](O)[C@H]7O)[C@H](O)[C@H]6O)CC[C@]5(C)[C@H]4CC[C@]3(C)[C@H]1[C@@H]2C (stereo not given in full) | 30.5 µM
Cc1nc(C(=O)NC2(O)C(=O)c3ccccc3C2=O)cs1 | 14 µM
C[C@@H]1OC2=C(C(=O)c3cccc(O)c3C2=O)[C@H](O)[C@@H]1O | 2.79 µM
Cc1cc(C)c2c(-n3cccc3)c(C(=O)NCCc3ccc(S(N)(=O)=O)cc3)sc2n1 | 2.55 µM
COc1ccc2nc(NC(=O)C(CC(C)C)NS(=O)(=O)c3ccc4c(c3)CCN4C(C)=O)sc2c1 (stereo not given) | 26 µM
O=C(COC(=O)c1ccc(CN2CCCC2=O)cc1)c1ccc2c(c1)OCCO2 | 0.113 µM

Second part, the compound after the results:

IC50 | SMILES
40 µM | COc1cc(NC(=O)COC(=O)Cn2cnc3ccccc32)cc(OC)c1
> 50 µM (inactive) | CN(C)S(=O)(=O)c1ccc(C(=O)Nc2c(C#N)oc3ccccc23)cc1
> 50 µM (inactive) | O=C(c1cscn1)N1CCC2(CC1)CC1(CO2)Nc2ccccc2-n2cccc21 (stereo not given)
21.9 µM | O=C1CC(C(=O)Nc2ccccc2F)n2nc(-c3ccccc3)cc2N1 (stereo not given)
36.3 µM | O=C(/C=C/c1c(F)cccc1Cl)N1CCc2ccccc2C1
22.4 µM | O=C(O)c1ccccc1C(=O)Nc1ccc(SC(C(=O)Nc2cccc(Cl)c2)c2ccccc2)cc1 (stereo not given)
3.77 µM | COc1cc(C(=O)NC(Cc2ccccc2)c2nc3ccccc3[nH]2)cc(OC)c1OC (stereo not given)
37.4 µM | COc1ccccc1-c1nc(Cn2nnc(C(=O)Nc3cc(C)cc(C)c3)c2N)c(C)o1
44.5 µM | CC(C)(C)C(=O)[C@@H]1[C@@H](C(=O)c2ccc3c(c2)OCO3)[C@@]2(C(=O)Nc3ccccc32)[C@H]2c3ccccc3C=CN12
43.5 µM | Cc1cnnn1-c1ccc(C(=O)Nc2cc(Cl)ccc2Cl)cc1
46.4 µM | COc1ccc2[nH]c3c(c2c1)CCN1C(=O)N(c2ccccc2C(=O)NCc2ccccc2)C(=O)[C@]31C
28.8 µM | COc1c2c(cc3cc(O)c4c(=O)cc(C)oc4c13)CCC2=O
> 50 µM (inactive) | CSc1nc2ncc3c(=O)n(CCc4ccccc4)ccc3n2n1
30 µM | COc1ccc(-c2[nH]c3ccccc3c2SCCNC(=O)c2ccc(S(=O)(=O)N3CCOCC3)cc2)cc1
35.6 µM | Cc1cccc(-n2cnc(C(=O)NCc3ccc(F)cc3)c2)n1
20 µM | Cc1ccc(C2c3c(-c4ccccc4O)n[nH]c3C(=O)N2Cc2ccco2)cc1 (stereo not given)
> 50 µM (inactive) | COc1cccc(CCNC(=O)CCn2c(=O)c(C)nc3cc(C)c(C)cc32)c1
> 50 µM (inactive) | N#C/C(=C\c1ccc(-c2cc(Cl)ccc2Cl)o1)c1nnc2n1CCCCC2
23.9 µM | CC(C)c1cc2c(c(O)c1O)[C@@]13CCCC(C)(C)[C@@H]1C[C@@H]2OC3=O
6.74 µM | COc1ccc(NC(=O)C2CCN(c3cncnc3N(C)C)CC2)cc1OC
0.686 µM | CCOc1ccc2c(c1)c(=O)c(C(=O)c1ccc(C)cc1)cn2CC(=O)Nc1ccc(OC)c(OC)c1
21.8 µM | COc1ccc(-c2cc(-c3ccc(F)cc3)[nH]c(=O)c2C#N)cc1

IC50 | SMILES
> 50 µM (inactive) | CC(=O)CN1CC2(CCN(Cc3ccc(F)cc3)CC2)COc2ccccc2S1(=O)=O
14.9 µM | CCCCc1ccc(-c2cc(C(=O)NCCN3CCOCC3)c3cc(Br)ccc3n2)cc1
> 5 µM (inactive) | COc1ccc2nc(Nc3ncc4c(n3)CCCC4=O)nc(C)c2c1
49.8 µM | N#Cc1ccc(Cl)cc1NC(=O)COc1cccnc1[N+](=O)[O-]
26.2 µM | COc1ccc(NC(=O)c2nnn(-c3cccc(C)c3)c2C)cc1
27.6 µM | CCOc1ccc(NC(=O)Cn2cnc(S(=O)(=O)N3CCc4ccccc43)c2)cc1
16.7 µM | O=C(CCCCn1c(=O)[nH]c2ccccc2c1=O)Nc1cccc(Cl)c1
> 50 µM (inactive) | O=C(Nc1cc(Cl)ccc1-n1cncn1)c1ccc(S(=O)(=O)N2CCCC2)cc1
22 µM | CCn1c(SCc2cccc(C)c2)nnc1-c1cnccn1
> 50 µM (inactive) | COc1ccc(C2CC(c3ccccc3)N(C(=O)C3CC3)c3ncnn32)cc1 (stereo not given)
> 50 µM (inactive) | O=C(c1ccc2ncccc2c1)N1CCC2(C1)Nc1cccnc1NC2=NC1CCCC1 (stereo not given)
16.2 µM | O=C(Nc1ccc2c(c1)OCCO2)C1CCN(C(=O)c2cc(-c3cccnc3)n[nH]2)CC1
2.03 µM | COc1ccccc1-c1ccc(SCC(=O)Nc2ccc3c(c2)OCCO3)nn1
> 50 µM (inactive) | Cc1c(C)n(-c2ccccc2)c2ncn(CC(=O)N(C)Cc3ccccc3)c(=O)c12
17 µM | CCOC(=O)c1c(C)oc2nc(CSc3ccccc3)[nH]c(=O)c12
0.695 µM | O=C(NCc1ccc(F)cc1)C1CCN(c2cnc(N3CCCCC3)nc2)CC1
> 50 µM (inactive) | CC(C)N1C[C@@H]2C[C@H](NS(=O)(=O)c3cccc(C#N)c3)CN2Cc2ccccc21
8.27 µM | O=C(Nc1ccc2c(c1)OCO2)c1cc(-c2cccnc2)n(-c2ccccc2)n1
46.1 µM | CCc1ccccc1NC(=O)c1cc(-c2ccccn2)n[nH]1
18.3 µM | CCOC(=O)N1CCN(S(=O)(=O)c2ccc(C(=O)Nc3ccc(Br)cc3)cc2)CC1
22.4 µM | O=C(COc1ccc(Cl)cc1)Nc1noc(-c2ccccc2)n1
> 50 µM (inactive) | Fc1cnc(N2CC[C@H]3CO[C@H](CNc4ncccn4)[C@H]3C2)nc1
